Experimental data taken from ChEMBL document CHEMBL1127015, “Centrally acting serotonergic and dopaminergic agents. 1. Synthesis and structure-activity relationships of 2,3,3a,4,5,9b-hexahydro-1H-benz[e]indole derivatives” (J Med Chem, 1993).

Legend:
Mus musculus [1] = test: Increase in locomotor activity in reserpinized mice following 0.4 umol/kg i.p.; assay type: functional
Mus musculus [2] = test: Antagonism of apomorphine in reserpinized mice when a dose of 38 micro mol/kg is administered intraperitoneally; assay type: functional
Mus musculus [3] = test: Antagonism of apomorphine for 10-20 minutes in reserpinized mice when a dose of 38 micro mol/kg is administered intraperitoneally; assay type: functional
Mus musculus [4] = test: Antagonism of apomorphine for 10-20 minutes in reserpinized mice when a dose of 3.8 micro mol/kg is administered intraperitoneally; assay type: functional
Mus musculus [5] = test: Antagonism of apomorphine effects in reserpinized mice following 0.4 umol/kg i.p.; assay type: functional
D(2) dopamine receptor [6] = molecular target: T1, D(2) dopamine receptor (Rattus norvegicus, UniProt P61169); test: Binding affinity against [3H]raclopride-labeled dopamine receptor D2 in rat striatum.; assay type: tissue-based
T1 sequence (P61169 whole entry): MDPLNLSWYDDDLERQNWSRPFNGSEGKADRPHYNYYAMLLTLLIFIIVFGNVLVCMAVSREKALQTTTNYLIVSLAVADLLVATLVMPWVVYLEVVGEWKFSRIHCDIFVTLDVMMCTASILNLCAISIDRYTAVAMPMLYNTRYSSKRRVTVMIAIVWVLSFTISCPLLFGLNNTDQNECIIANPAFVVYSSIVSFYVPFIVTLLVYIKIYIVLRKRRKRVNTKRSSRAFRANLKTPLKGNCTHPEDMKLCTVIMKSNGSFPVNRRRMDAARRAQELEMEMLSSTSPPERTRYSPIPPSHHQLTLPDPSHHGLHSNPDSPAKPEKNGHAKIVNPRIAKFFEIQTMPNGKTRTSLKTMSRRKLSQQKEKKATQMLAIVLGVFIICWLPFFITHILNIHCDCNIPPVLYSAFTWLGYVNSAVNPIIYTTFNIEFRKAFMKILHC

Mus musculus [7] = test: Ability to stimulate dopaminergic systems by effect on locomotor activity in reserpinized mice when a dose of 38 micro mol/kg is administered intraperitoneally; assay type: functional
Mus musculus [8] = test: Ability to stimulate dopaminergic systems by effect on locomotor activity in reserpinized mice when a dose of 3.8 micro mol/kg is administered intraperitoneally; assay type: functional
D(2) dopamine receptor [9] = molecular target: T2, D(2) dopamine receptor (Homo sapiens, UniProt P14416); test: Binding affinity against [3H]U-86,170-labeled dopamine receptor D2 in cloned CHO cells; assay type: cell-based
T2 sequence (P14416 whole entry): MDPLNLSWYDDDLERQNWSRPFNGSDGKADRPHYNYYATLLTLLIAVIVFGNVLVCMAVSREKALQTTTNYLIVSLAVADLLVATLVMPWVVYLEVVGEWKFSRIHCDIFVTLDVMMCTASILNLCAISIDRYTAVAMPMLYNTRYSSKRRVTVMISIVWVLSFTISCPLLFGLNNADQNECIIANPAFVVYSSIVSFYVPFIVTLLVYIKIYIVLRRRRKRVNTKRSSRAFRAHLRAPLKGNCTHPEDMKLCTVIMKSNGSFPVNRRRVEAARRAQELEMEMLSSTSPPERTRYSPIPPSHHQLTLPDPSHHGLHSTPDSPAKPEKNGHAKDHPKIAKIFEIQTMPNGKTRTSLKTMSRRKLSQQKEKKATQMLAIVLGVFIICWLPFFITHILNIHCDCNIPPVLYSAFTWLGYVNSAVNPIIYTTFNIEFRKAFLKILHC

Mus musculus [10] = test: Antagonism of apomorphine effects for 10-20 minutes in reserpinized mice following 0.4 umol/kg i.p.; assay type: functional
Mus musculus [11] = test: Antagonism of apomorphine for 0-10 minutes in reserpinized mice when a dose of 38 micro mol/kg is administered intraperitoneally; assay type: functional
Mus musculus [12] = test: Antagonism of apomorphine in reserpinized mice when a dose of 3.8 micro mol/kg is administered intraperitoneally; assay type: functional
Mus musculus [13] = test: Antagonism of apomorphine for 0-10 minutes in reserpinized mice when a dose of 3.8 micro mol/kg is administered intraperitoneally; assay type: functional
D(2) dopamine receptor [14] = molecular target: T2, D(2) dopamine receptor; test: Intrinsic activity from GTP shift using membranes from CHO cells transfected with mammalian dopamine receptor D2.; assay type: cell membranes
Mus musculus [15] = test: Antagonism of apomorphine effects for 0-10 minutes in reserpinized mice following 0.4 umol/kg i.p.; assay type: functional; set-up: unit not given beside the values
Rattus norvegicus [16] = test: Inhibition of firing rates of serotonergic neurons in the dorsal raphe nucleus by intravenous injection in rats; assay type: functional
Rattus norvegicus [17] = test: Inhibition of firing rates of dopaminergic neurons in the substantia nigra pars compacta by intravenous injection in rats; assay type: functional
Mus musculus [18] = test: Effective dose on hypothermia in mouse when administered subcutaneously; assay type: functional; conditions: sc
D(2) dopamine receptor [19] = molecular target: T1, D(2) dopamine receptor; test: Inhibitory concentration against [3H]raclopride-labeled dopamine receptor D2 in rat striatum; assay type: tissue-based
Mus musculus [20] = test: Maximum decrease in temperature when compound is administered through peroral route; assay type: functional
Mus musculus [21] = test: Maximum decrease in temperature when compound is administered subcutaneously; assay type: functional
Mus musculus [22] = test: Effective dose on hypothermia in mouse when administered through peroral route; assay type: functional; conditions: po
Mus musculus [23] = test: Antagonism of apomorphine for 10-20 minutes in reserpinized mice when a dose of 3.6 micro mol/kg is administered intraperitoneally; assay type: functional
Mus musculus [24] = test: Antagonism of apomorphine for 0-10 minutes in reserpinized mice when a dose of 3.6 micro mol/kg is administered intraperitoneally; assay type: functional
Felis catus [25] = test: Maximum decrease of arterial blood pressure at sympathetic nerve activity (SND) in anesthetized cat has been observed following 1 mg/kg dose; assay type: functional; set-up: scale not given: the % may be the effect or the level left
Mus musculus [26] = test: Ability to stimulate dopaminergic systems by effect on locomotor activity in reserpinized mice when a dose of 3.6 micro mol/kg is administered intraperitoneally; assay type: functional
Rattus norvegicus [27] = organism: Rattus norvegicus; test: Effect on the synthesis rates of serotonin (5-HTP accumulation) in the rat ventral limbic brain region at 10.7uMkg. value as percent change from the control; assay type: functional, Limbic system
Mus musculus [28] = test: Ability to stimulate dopaminergic systems by effect on locomotor activity in reserpinized mice when a dose of 36 micro mol/kg is administered intraperitoneally; assay type: functional
Mus musculus [29] = test: Antagonism of apomorphine for 10-20 minutes in reserpinized mice when a dose of 36 micro mol/kg is administered intraperitoneally; assay type: functional
Felis catus [30] = test: Maximum decrease of sympathetic nerve activity (SND) in anesthetized cat has been expressed as percent control; assay type: functional; set-up: scale not given: the % may be the effect or the level left
Mus musculus [31] = test: Antagonism of apomorphine for 0-10 minutes in reserpinized mice when a dose of 36 micro mol/kg is administered intraperitoneally; assay type: functional
Mus musculus [32] = test: Antagonism of apomorphine in reserpinized mice when a dose of 36 micro mol/kg is administered intraperitoneally; assay type: functional
Rattus norvegicus [33] = organism: Rattus norvegicus; test: Effect on the synthesis rates of serotonin (5-HTP accumulation) in the rat ventral limbic brain region at 10.7uMkg.; assay type: functional, Limbic system
Mus musculus [34] = test: Antagonism of apomorphine in reserpinized mice when a dose of 3.6 micro mol/kg is administered intraperitoneally; assay type: functional

SMILES	Ki (D(2) dopamine receptor [6]) [nM]	Ki (D(2) dopamine receptor [9]) [nM]	Intrinsic activity (D(2) dopamine receptor [14]) [%]	ED50 (Mus musculus [18]) [µmol/kg]	IC50 (D(2) dopamine receptor [19]) [nM]	Max temperature decrease (Mus musculus [20])	Max temperature decrease (Mus musculus [21])	ED50 (Mus musculus [22]) [µmol/kg]	further results
C=CCN1CC[C@H]2c3cccc(O)c3CC[C@H]21 (racemic)	198	75	29						Locomotor activity (Mus musculus [1]): 0; Locomotor activity (Mus musculus [2]): 21; Locomotor activity (Mus musculus [3]): 52; Locomotor activity (Mus musculus [4]): 111; Locomotor activity (Mus musculus [5]): 130; Locomotor activity (Mus musculus [7]): 12; Locomotor activity (Mus musculus [8]): 8; Locomotor activity (Mus musculus [10]): 111; Locomotor activity (Mus musculus [11]): 32; Locomotor activity (Mus musculus [12]): 111; Locomotor activity (Mus musculus [13]): 88; Locomotor activity (Mus musculus [15]): 101
COc1cccc2c1C1CCN(CCc3ccccc3)[C@@H]1CC2 (some centres undefined)		> 339							
CCCN1CC[C@H]2c3cccc(O)c3CC[C@H]21 (racemic)	> 1000	218	1						
CCCN(CCC)C1CCc2cccc(O)c2C1 (centres undefined) [8-OH-DPAT]	> 1000								ED50 (Rattus norvegicus [16]): 0.005 µmol/kg; ED50 (Rattus norvegicus [17]): 2.25 µmol/kg
CCCN1CC[C@H]2c3c(O)cccc3CC[C@H]21				0.3	> 1000	7.3	5.5	4.9	
CN(C)CCCN1c2ccccc2Sc2ccc(Cl)cc21 [CHLORPROMAZINE]			5						
C=CCN1CC[C@@H]2c3cccc(OC)c3CC[C@H]21 (racemic)	99		0	> 107			3.4		Locomotor activity (Mus musculus [1]): 4; Locomotor activity (Mus musculus [23]): 116; Locomotor activity (Mus musculus [5]): 156; Locomotor activity (Mus musculus [24]): 76; Control (Felis catus [25]): 61%; Locomotor activity (Mus musculus [26]): 81; Control (Rattus norvegicus [27]): 95%; Locomotor activity (Mus musculus [28]): 49; Locomotor activity (Mus musculus [29]): 54; Locomotor activity (Mus musculus [10]): 106; Control (Felis catus [30]): 105%; Locomotor activity (Mus musculus [31]): 42; Locomotor activity (Mus musculus [32]): 13; Locomotor activity (Mus musculus [15]): 78; Control (Rattus norvegicus [33]): -51%; Locomotor activity (Mus musculus [34]): 142
CCCN1CC[C@@H]2c3c(O)cccc3CC[C@@H]21			0	0.05	> 1000	5.5	8.5	21	
CCCN1CCC2c3c(O)cccc3CCC21 (racemic)				2.1	> 1000	2.6	8.8	154	
CCCN1CCC2c3c(cccc3OC)CCC21 (racemic)	> 1000			20		6	1.5	109	
